The source made the active and inactive calls. The rule behind the calls is not given here.
What was measured:
[1] = molecular target: Phosphatidylinositol 4,5-bisphosphate 3-kinase catalytic subunit gamma isoform (Homo sapiens, UniProt P48736); assay: Inhibition of PI3Kgamma (unknown origin) using PIP2 as substrate in presence of ATP incubated for 60 mins by ADP-glo based luminescence assay
CNE-2 = assay: Antiproliferative activity against human CNE-2 cells assessed as reduction in cell viability incubated for 48 hrs by MTT assay; assay type: functional, cell-based; conditions: CNE-2, 48 h
HCT-116 [2] = assay: Antitumor activity against human HCT-116 cells xenografted in BALB/c nude mouse assessed as tumor growth inhibition at 20 mg/kg, iv administered for 19 days; assay type: functional; conditions: HCT-116, iv, 456 h, time 19 day, read-out: TGI
A-431 = assay: Antiproliferative activity against human A431 cells harboring wild type EGFR mutant assessed as reduction in cell viability incubated for 72 hrs by celltiter-glo assay; assay type: functional, cell-based; conditions: A-431, 72 h
HCT-116 [3] = assay: Induction of apoptosis in human HCT-116 cells assessed as viable cells at 10 uM incubated for 24 hrs by annexin V FITC/propidium iodide staining based flow cytometry (reference value: 81.2 %); assay type: functional; conditions: read-out: Activity
HCT-116 [4] = assay: Induction of apoptosis in human HCT-116 cells assessed as necrotic cells at 2.5 uM incubated for 24 hrs by annexin V FITC/propidium iodide staining based flow cytometry (reference value: 0.9 %); assay type: functional
HCT-116 [5] = assay: Antiproliferative activity against human HCT-116 cells assessed as reduction in cell viability incubated for 48 hrs by MTT assay; assay type: functional, cell-based; conditions: HCT-116, 48 h
HCT-116 [6] = assay: Induction of apoptosis in human HCT-116 cells assessed as viable cells at 5 uM incubated for 24 hrs by annexin V FITC/propidium iodide staining based flow cytometry (reference value: 81.2 %); assay type: functional; conditions: read-out: Activity
[7] = AUC (0 to infinity) in Sprague-Dawley rat at 20 mg/kg, iv by LC-MS/MS analysis; assay type: ADME, organism-based; parameters: route intravenous, time infinity, dose 20 mg/kg; conditions: in vivo
Liver = assay: Toxicity in BALB/c mouse assessed as effect on liver by H and E staining based histological analysis; assay type: tissue-based; conditions: in vivo
[8] = molecular target: T1, Phosphatidylinositol 4,5-bisphosphate 3-kinase catalytic subunit delta isoform (Homo sapiens, UniProt O00329); assay: Inhibition of PI3Kdelta (unknown origin) using PIP2 as substrate in presence of ATP incubated for 60 mins by ADP-glo based luminescence assay
T1 sequence (O00329 whole entry): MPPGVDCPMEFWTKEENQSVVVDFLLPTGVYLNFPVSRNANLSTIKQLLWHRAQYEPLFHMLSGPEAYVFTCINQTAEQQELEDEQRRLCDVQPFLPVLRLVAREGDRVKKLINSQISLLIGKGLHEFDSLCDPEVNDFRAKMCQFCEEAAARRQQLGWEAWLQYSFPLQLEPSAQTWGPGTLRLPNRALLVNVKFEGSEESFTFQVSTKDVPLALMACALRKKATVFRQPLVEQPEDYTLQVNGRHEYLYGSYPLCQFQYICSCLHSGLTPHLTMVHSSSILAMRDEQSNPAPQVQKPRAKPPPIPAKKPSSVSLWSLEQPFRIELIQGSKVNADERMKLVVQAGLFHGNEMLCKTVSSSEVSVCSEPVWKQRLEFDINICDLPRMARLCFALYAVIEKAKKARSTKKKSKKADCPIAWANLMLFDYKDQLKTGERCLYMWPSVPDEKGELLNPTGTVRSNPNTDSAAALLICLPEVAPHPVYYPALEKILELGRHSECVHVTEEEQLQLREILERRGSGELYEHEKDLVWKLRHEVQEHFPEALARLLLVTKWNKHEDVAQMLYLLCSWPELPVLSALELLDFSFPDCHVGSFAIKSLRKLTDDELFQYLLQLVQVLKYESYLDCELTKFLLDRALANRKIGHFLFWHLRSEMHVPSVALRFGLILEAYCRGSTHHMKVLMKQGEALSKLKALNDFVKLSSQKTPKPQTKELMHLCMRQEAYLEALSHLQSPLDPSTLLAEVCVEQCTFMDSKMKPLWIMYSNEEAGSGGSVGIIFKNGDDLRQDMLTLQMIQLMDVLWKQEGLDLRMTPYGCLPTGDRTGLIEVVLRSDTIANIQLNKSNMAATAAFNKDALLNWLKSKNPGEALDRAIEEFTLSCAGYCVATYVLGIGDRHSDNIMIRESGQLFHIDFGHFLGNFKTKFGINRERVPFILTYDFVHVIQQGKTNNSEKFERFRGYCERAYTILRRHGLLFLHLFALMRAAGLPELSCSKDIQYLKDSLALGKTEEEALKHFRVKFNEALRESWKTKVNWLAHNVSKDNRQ

HCT-116 [9] = assay: Induction of apoptosis in human HCT-116 cells assessed as viable cells at 2.5 uM incubated for 24 hrs by annexin V FITC/propidium iodide staining based flow cytometry (reference value: 81.2 %); assay type: functional; conditions: read-out: Activity
HCT-116 [10] = assay: Inhibition of AKT phosphorylation at S473 residue in human HCT-116 cells at 10 uM after 24 hrs by Western blot analysis; assay type: cell-based
[11] = molecular target: Voltage-gated inwardly rectifying potassium channel KCNH2 (Homo sapiens, UniProt Q12809); assay: Inhibition of human ERG transfected in CHO cells by automated patch method; assay type: toxicity, cell-based
HCT-116 [12] = assay: Antitumor activity against human HCT-116 cells xenografted in BALB/c nude mouse assessed as tumor size at 20 mg/kg, iv administered for 19 days (reference value: 1264.1+/-95.7 mm3); assay type: functional; conditions: time 19 day

Sequence of Voltage-gated inwardly rectifying potassium channel KCNH2 (Q12809 whole entry): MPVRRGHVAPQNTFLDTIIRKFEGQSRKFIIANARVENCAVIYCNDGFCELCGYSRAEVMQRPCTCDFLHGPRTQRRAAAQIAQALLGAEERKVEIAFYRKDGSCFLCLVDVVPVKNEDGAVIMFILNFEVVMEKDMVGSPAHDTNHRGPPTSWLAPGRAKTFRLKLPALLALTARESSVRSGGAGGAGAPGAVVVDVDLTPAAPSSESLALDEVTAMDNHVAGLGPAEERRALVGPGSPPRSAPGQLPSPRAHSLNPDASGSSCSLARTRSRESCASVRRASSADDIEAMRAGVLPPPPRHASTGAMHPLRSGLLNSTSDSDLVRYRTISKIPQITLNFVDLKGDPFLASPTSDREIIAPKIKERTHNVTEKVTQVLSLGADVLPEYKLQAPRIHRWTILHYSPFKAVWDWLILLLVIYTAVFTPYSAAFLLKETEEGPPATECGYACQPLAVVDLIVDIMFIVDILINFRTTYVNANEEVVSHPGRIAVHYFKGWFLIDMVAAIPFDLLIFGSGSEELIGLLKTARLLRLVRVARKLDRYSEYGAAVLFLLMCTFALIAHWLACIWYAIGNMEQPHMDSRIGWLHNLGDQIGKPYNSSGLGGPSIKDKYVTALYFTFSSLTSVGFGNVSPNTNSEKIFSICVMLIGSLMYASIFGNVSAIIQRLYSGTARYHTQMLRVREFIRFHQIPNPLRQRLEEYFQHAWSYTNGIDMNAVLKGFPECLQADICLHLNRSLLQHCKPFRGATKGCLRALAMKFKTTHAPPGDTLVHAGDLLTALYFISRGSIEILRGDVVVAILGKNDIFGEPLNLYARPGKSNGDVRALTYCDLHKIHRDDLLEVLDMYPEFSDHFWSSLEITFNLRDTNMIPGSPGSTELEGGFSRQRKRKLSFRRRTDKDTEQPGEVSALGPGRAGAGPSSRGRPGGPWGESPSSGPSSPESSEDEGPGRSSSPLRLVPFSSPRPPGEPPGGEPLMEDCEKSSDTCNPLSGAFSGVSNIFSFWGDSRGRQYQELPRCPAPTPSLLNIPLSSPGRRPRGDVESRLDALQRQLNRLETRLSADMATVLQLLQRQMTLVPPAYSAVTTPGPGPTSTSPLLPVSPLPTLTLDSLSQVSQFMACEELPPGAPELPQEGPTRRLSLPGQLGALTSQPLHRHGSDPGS
Sequence of Phosphatidylinositol 4,5-bisphosphate 3-kinase catalytic subunit gamma isoform (P48736 whole entry, canonical isoform): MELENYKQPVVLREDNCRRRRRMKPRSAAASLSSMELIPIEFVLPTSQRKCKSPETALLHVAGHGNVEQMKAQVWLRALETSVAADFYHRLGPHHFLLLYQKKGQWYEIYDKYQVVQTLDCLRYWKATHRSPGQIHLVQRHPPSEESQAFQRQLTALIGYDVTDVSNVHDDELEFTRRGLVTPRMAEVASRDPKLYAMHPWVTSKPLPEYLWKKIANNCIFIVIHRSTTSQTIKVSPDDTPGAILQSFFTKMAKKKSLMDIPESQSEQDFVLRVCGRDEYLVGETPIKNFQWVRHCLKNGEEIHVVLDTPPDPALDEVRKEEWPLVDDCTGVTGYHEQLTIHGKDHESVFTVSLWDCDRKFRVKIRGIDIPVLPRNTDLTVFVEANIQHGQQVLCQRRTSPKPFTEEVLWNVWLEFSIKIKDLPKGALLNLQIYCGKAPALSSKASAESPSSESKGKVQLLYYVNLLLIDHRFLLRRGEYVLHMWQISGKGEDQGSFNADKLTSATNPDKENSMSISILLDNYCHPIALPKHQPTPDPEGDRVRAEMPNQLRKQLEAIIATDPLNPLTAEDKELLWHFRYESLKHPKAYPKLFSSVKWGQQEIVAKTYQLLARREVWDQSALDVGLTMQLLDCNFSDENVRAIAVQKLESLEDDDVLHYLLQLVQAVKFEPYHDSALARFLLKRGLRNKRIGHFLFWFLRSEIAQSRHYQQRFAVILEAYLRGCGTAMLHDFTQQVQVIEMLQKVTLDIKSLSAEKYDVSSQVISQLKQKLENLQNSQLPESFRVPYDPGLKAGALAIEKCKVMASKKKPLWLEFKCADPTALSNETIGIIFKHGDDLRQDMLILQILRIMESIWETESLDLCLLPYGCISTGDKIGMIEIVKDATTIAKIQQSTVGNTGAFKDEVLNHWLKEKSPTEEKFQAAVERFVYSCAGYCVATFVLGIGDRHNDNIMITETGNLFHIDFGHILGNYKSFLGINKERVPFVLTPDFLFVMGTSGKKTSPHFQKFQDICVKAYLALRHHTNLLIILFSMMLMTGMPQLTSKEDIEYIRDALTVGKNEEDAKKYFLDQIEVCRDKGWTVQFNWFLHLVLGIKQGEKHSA

IC50 [1]: 0.0087 µM | IC50 (A-431): 0.218 µM | IC50 (HCT-116 [5]): 0.11 µM | AUC(0-inf) [7]: 30600 ng·h/mL | IC50 [8]: 0.0274 µM
SMILES: NC(=O)[C@@H]1CCCN1C(=O)c1ccc(NC(=O)Nc2ccc(-c3nc(N4CCOCC4)nc(N4CCOCC4)n3)cc2)cc1
IC50 (CNE-2): 0.07 µM | inhibition in vivo at 20 mg/kg (HCT-116 [2]): 41.6% | viability at 10 µM (HCT-116 [3]): 63.1% | Activity (HCT-116 [4]): 2.2% | viability at 5 µM (HCT-116 [6]): 75.2% | Activity (Liver): Non-Toxic | viability at 2.5 µM (HCT-116 [9]): 58.7% | inhibition (HCT-116 [10]): Active | IC50 [11]: > 30 µM | Activity (HCT-116 [12]): 796.2 mm3

— ChEMBL document CHEMBL5046253, “Synthesis and bioevaluation of diaryl urea derivatives as potential antitumor agents for the treatment of human colorectal cancer” (Eur J Med Chem, 2022)
